Measured values published in ChEMBL document CHEMBL1759899, “Design and synthesis of several small-size HTLV-I protease inhibitors with different hydrophilicity profiles” (Bioorg Med Chem Lett, 2011).
Numbered stars: 1 amine (or outer) side, 2 acyl side, 3 side chain; on linkers, the order of the positions; unused ones are H or OH. Square brackets hold non-standard residues; d marks the D form. Peptide text beside a SMILES is read from it. * marks the point of attachment. X1 = O=C([C@@H](O)[C@H](Cc1ccccc1)N[*:1])[*:2]; Thz(5,5-Me2) = CC1(C)SCN[C@@H]1C(=O)O; Phg = N[C@H](C(=O)O)c1ccccc1; Tle = CC(C)(C)[C@H](N)C(=O)O; Dap = NC[C@H](N)C(=O)O; NHCH2tBu = CC(C)(C)CN*

Columns and labels:
Protease = Protease (Human T-cell leukemia virus type I, UniProt Q82134, L40I); assay: Inhibition of HTLV-1 recombinant protease L40I mutant
[1] = biological target: Protease (Human immunodeficiency virus 1) (UniProt Q9YQ12); assay: Inhibition of HIV1 recombinant protease at 50 nM
[2] = test system: T1, Protease (Human T-cell leukemia virus type I), Q82134 [L40I]; assay: Inhibition of HTLV-1 recombinant protease L40I mutant at 50 nM
T1 sequence (whole entry): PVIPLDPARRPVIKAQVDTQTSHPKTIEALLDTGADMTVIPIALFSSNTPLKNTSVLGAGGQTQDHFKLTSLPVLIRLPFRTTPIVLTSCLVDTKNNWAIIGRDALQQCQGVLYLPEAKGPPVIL

Sequence of Protease (Human immunodeficiency virus 1) (Q9YQ12 as listed by the source): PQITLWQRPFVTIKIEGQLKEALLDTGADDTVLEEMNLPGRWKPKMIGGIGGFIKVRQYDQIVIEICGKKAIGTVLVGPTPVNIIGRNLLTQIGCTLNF

Structure (SMILES)	IC50 (Protease)	inhibition [1]	inhibition [2]
CC(C)(C)CNC(=O)[C@H]1N(C(=O)[C@@H](O)[C@H](Cc2ccccc2)NC(=O)[C@@H](NC(=O)[C@@H](NC(=O)CCN)c2ccccc2)C(C)(C)C)CSC1(C)C	5.7 nM	99%	90%
CC(C)(C)CNC(=O)[C@H]1N(C(=O)[C@@H](O)[C@H](Cc2ccccc2)NC(=O)[C@@H](NC(=O)[C@@H](NCc2ccccc2)c2ccccc2)C(C)(C)C)CSC1(C)C	–	92%	44%
CCCC(=O)N[C@H](C(=O)N[C@H](C(=O)N[C@@H](Cc1ccccc1)[C@H](O)C(=O)N1CSC(C)(C)[C@H]1C(=O)NCC(C)(C)C)C(C)(C)C)c1ccccc1	–	99%	–
CC(C)(C)CNC(=O)[C@H]1N(C(=O)[C@@H](O)[C@H](Cc2ccccc2)NC(=O)[C@@H](NC(=O)[C@@H](NC(=O)CCCN)c2ccccc2)C(C)(C)C)CSC1(C)C	25.4 nM	99%	–
CN[C@H](C(=O)N[C@H](C(=O)N[C@@H](Cc1ccccc1)[C@H](O)C(=O)N1CSC(C)(C)[C@H]1C(=O)NCC(C)(C)C)C(C)(C)C)c1ccccc1	31.4 nM	> 99%	38%
CCN(CC)[C@H](C(=O)N[C@H](C(=O)N[C@@H](Cc1ccccc1)[C@H](O)C(=O)N1CSC(C)(C)[C@H]1C(=O)NCC(C)(C)C)C(C)(C)C)c1ccccc1	–	98%	39%
CC(C)(C)CNC(=O)[C@H]1N(C(=O)[C@@H](O)[C@H](Cc2ccccc2)NC(=O)[C@@H](NC(=O)[C@@H](NC(=O)[C@@H](N)CN)c2ccccc2)C(C)(C)C)CSC1(C)C (H-[Dap][Phg][Tle][X1][Thz(5,5-Me2)]-NHCH2tBu)	–	72%	8%
CC(C)(C)CNC(=O)[C@H]1N(C(=O)[C@@H](O)[C@H](Cc2ccccc2)NC(=O)[C@@H](NC(=O)[C@@H](NC(=O)CN)c2ccccc2)C(C)(C)C)CSC1(C)C (H-G[Phg][Tle][X1][Thz(5,5-Me2)]-NHCH2tBu)	41.1 nM	94%	–
COC(=O)N[C@H](C(=O)N[C@H](C(=O)N[C@@H](Cc1ccccc1)[C@H](O)C(=O)N1CSC(C)(C)[C@H]1C(=O)NNC(C)(C)C)C(C)(C)C)c1ccccc1	10.4 nM	99%	–
CC(C)(C)CNC(=O)[C@H]1N(C(=O)[C@@H](O)[C@H](Cc2ccccc2)NC(=O)[C@@H](NC(=O)[C@@H](N)c2ccccc2)C(C)(C)C)CSC1(C)C	–	–	38%
COC(=O)N[C@H](C(=O)N[C@H](C(=O)N[C@@H](Cc1ccccc1)[C@H](O)C(=O)N1CSC(C)(C)[C@H]1C(=O)NCC(C)(C)O)C(C)(C)C)c1ccccc1	39.1 nM	99%	–
CC(C)(C)CNC(=O)[C@H]1N(C(=O)[C@@H](O)[C@H](Cc2ccccc2)NC(=O)[C@@H](NC(=O)[C@@H](NC(=O)C(C)(CO)CO)c2ccccc2)C(C)(C)C)CSC1(C)C	–	86%	18%
CCN[C@H](C(=O)N[C@H](C(=O)N[C@@H](Cc1ccccc1)[C@H](O)C(=O)N1CSC(C)(C)[C@H]1C(=O)NCC(C)(C)C)C(C)(C)C)c1ccccc1	25.5 nM	99%	38%
CN(C)[C@H](C(=O)N[C@H](C(=O)N[C@@H](Cc1ccccc1)[C@H](O)C(=O)N1CSC(C)(C)[C@H]1C(=O)NCC(C)(C)C)C(C)(C)C)c1ccccc1	–	99%	38%
COC(=O)N[C@H](C(=O)N[C@H](C(=O)N[C@@H](Cc1ccccc1)[C@H](O)C(=O)N1CSC(C)(C)[C@H]1C(=O)NCC(C)(C)C)C(C)(C)C)c1ccccc1	7.2 nM	99%	–
